ChEMBL document CHEMBL1681651, “A broad spectrum anticancer nucleoside with selective toxicity against human colon cells in vitro” (2011)

Assays:
Format in all cases: functional
NCI-H460 = assay: Growth inhibition of human NCI-H460 cells after 48 hrs by […] growth inhibition assay; conditions: NCI-H460, 48 h
SK-MEL-5 [1] = assay: Growth inhibition of human SK-MEL-5 cells assessed as cell growth at 0.1 uM after 48 hrs by SRB assay; conditions: SK-MEL-5, 48 h, read-out: Activity
CCRF-CEM [2] = assay: Growth inhibition of human CCRF-CEM cells assessed as cell growth at 10 uM after 48 hrs by SRB assay; conditions: read-out: Activity
OVCAR-3 [3] = assay: Growth inhibition of human OVCAR3 cells assessed as cell growth at 1 uM after 48 hrs by SRB assay; conditions: OVCAR-3, 48 h, read-out: Activity
OVCAR-5 [4] = assay: Growth inhibition of human OVCAR5 cells assessed as cell growth at 1 mM after 48 hrs by SRB assay; conditions: OVCAR-5, 48 h, read-out: Activity
SK-MEL-2 [5] = assay: Growth inhibition of human SK-MEL-2 cells assessed as cell growth at 100 uM after 48 hrs by SRB assay; conditions: SK-MEL-2, 48 h, read-out: Activity
DU-145 = assay: Growth inhibition of human DU145 cells after 48 hrs by […] growth inhibition assay; conditions: DU-145, 48 h
NCI/ADR-RES [6] = assay: Growth inhibition of human NCI/ADR-RES cells after 48 hrs by SRB assay
OVCAR-5 [7] = assay: Growth inhibition of human OVCAR5 cells assessed as cell growth at 100 uM after 48 hrs by SRB assay; conditions: OVCAR-5, 48 h, read-out: Activity
NCI/ADR-RES [8] = assay: Growth inhibition of human NCI/ADR-RES cells assessed as cell growth at 0.1 uM after 48 hrs by SRB assay; conditions: read-out: Activity
RXF 393 = assay: Growth inhibition of human RXF393 cells assessed as cell growth at 100 uM after 48 hrs by SRB assay; conditions: RXF 393, 48 h, read-out: Activity
SF-268 = assay: Growth inhibition of human SF268 cells assessed as cell growth at 0.1 uM after 48 hrs by SRB assay; conditions: SF-268, 48 h, read-out: Activity
NCI-H226 [9] = assay: Growth inhibition of human NCI-H226 cells assessed as cell growth at 100 uM after 48 hrs by SRB assay; conditions: NCI-H226, 48 h, read-out: Activity
SK-MEL-5 [10] = assay: Growth inhibition of human SK-MEL-5 cells after 48 hrs by […] growth inhibition assay; conditions: SK-MEL-5, 48 h
HOP-62 = assay: Growth inhibition of human HOP62 cells assessed as cell growth at 1 uM after 48 hrs by SRB assay; conditions: HOP-62, 48 h, read-out: Activity
ACHN = assay: Growth inhibition of human ACHN cells assessed as cell growth at 0.1 uM after 48 hrs by SRB assay; conditions: read-out: Activity
OVCAR-3 [11] = assay: Growth inhibition of human OVCAR3 cells assessed as cell growth at 1 mM after 48 hrs by SRB assay; conditions: OVCAR-3, 48 h, read-out: Activity
SF-539 = assay: Growth inhibition of human SF539 cells assessed as cell growth at 1 uM after 48 hrs by SRB assay; conditions: SF-539, 48 h, read-out: Activity
CAKI-1 = assay: Growth inhibition of human Caki1 cells assessed as cell growth at 10 uM after 48 hrs by SRB assay; conditions: CAKI-1, 48 h, read-out: Activity
NCI-H226 [12] = assay: Growth inhibition of human NCI-H226 cells assessed as cell growth at 0.1 uM after 48 hrs by SRB assay; conditions: NCI-H226, 48 h, read-out: Activity
SK-MEL-28 = assay: Growth inhibition of human SK-MEL-28 cells assessed as cell growth at 10 uM after 48 hrs by SRB assay; conditions: SK-MEL-28, 48 h, read-out: Activity
HCT-15 [13] = assay: Growth inhibition of human HCT15 cells assessed as cell growth at 1 mM after 48 hrs by SRB assay; conditions: HCT-15, 48 h, read-out: Activity
UACC-257 [14] = assay: Growth inhibition of human UACC257 cells assessed as cell growth at 10 uM after 48 hrs by SRB assay; conditions: UACC-257, 48 h, read-out: Activity
KM12 = assay: Growth inhibition of human KM12 cells assessed as cell growth at 1 mM after 48 hrs by SRB assay; conditions: KM12, 48 h, read-out: Activity
UACC-257 [15] = assay: Growth inhibition of human UACC257 cells assessed as cell growth at 0.1 uM after 48 hrs by SRB assay; conditions: UACC-257, 48 h, read-out: Activity
SK-OV-3 = assay: Growth inhibition of human SKOV3 cells assessed as cell growth at 1 mM after 48 hrs by SRB assay; conditions: SK-OV-3, 48 h, read-out: Activity
MOLT-4 = assay: Growth inhibition of human MOLT4 cells assessed as cell growth at 10 uM after 48 hrs by SRB assay; conditions: MOLT-4, 48 h, read-out: Activity
HCT-15 [16] = assay: Growth inhibition of human HCT15 cells assessed as cell growth at 0.1 uM after 48 hrs by SRB assay; conditions: HCT-15, 48 h, read-out: Activity
CCRF-CEM [17] = assay: Growth inhibition of human CCRF-CEM cells after 48 hrs by […] growth inhibition assay
HT-29 [18] = assay: Growth inhibition of human HT-29 cells assessed as cell growth at 100 uM after 48 hrs by SRB assay; conditions: HT-29, 48 h, read-out: Activity
HT-29 [19] = assay: Growth inhibition of human HT-29 cells assessed as cell growth at 1 uM after 48 hrs by SRB assay; conditions: HT-29, 48 h, read-out: Activity
MCF7 = assay: Growth inhibition of human MCF7 cells assessed as cell growth at 1 uM after 48 hrs by SRB assay; conditions: MCF7, 48 h, read-out: Activity
TK-10 = assay: Growth inhibition of human TK10 cells assessed as cell growth at 1 uM after 48 hrs by SRB assay; conditions: TK-10, 48 h, read-out: Activity
SK-MEL-2 [20] = assay: Growth inhibition of human SK-MEL-2 cells assessed as cell growth at 1 mM after 48 hrs by SRB assay; conditions: SK-MEL-2, 48 h, read-out: Activity
EKVX = assay: Growth inhibition of human EKVX cells assessed as cell growth at 1 mM after 48 hrs by SRB assay; conditions: read-out: Activity
[21] = read-out: LC50 (the source's name)
[22] = read-out: pLC50 (the source's name) (converted)

CCOC(=O)C[C@H]1[C@@H](O[Si](C)(C)C(C)(C)C)[C@H](n2cnc3c(NC(=O)Nc4ccccc4)ncnc32)O[C@@H]1CNC(=O)NC
GI50 (NCI-H460; read-out: GI50): 5.54 µM | CC50 (NCI-H460; [21]): > 100 µM | TGI (NCI-H460; read-out: TGI): 25 µM | GI50 (NCI-H460; read-out: pGI50 (converted)): 5.5 µM | CC50 (NCI-H460; [22]): > 100 µM | TGI (NCI-H460; read-out: pTGI (converted)): 25.1 µM | growth at 0.1 µM (SK-MEL-5 [1]): 96% | growth at 10 µM (CCRF-CEM [2]): 92% | growth at 1 µM (OVCAR-3 [3]): 115% | growth at 1000 µM (OVCAR-5 [4]): 27% | growth at 100 µM (SK-MEL-2 [5]): 32% | CC50 (DU-145; [21]): 12.5 µM | GI50 (DU-145; read-out: pGI50 (converted)): 5.01 µM | CC50 (DU-145; [22]): 77.6 µM | TGI (DU-145; read-out: pTGI (converted)): 19.5 µM | GI50 (NCI/ADR-RES [6]; read-out: GI50): > 100 µM | CC50 (NCI/ADR-RES [6]; [21]): > 100 µM | TGI (NCI/ADR-RES [6]; read-out: TGI): > 100 µM | GI50 (NCI/ADR-RES [6]; read-out: pGI50 (converted)): > 100 µM | CC50 (NCI/ADR-RES [6]; [22]): > 100 µM | TGI (NCI/ADR-RES [6]; read-out: pTGI (converted)): > 100 µM | growth at 100 µM (OVCAR-5 [7]): 72% | growth at 0.1 µM (NCI/ADR-RES [8]): 105% | growth at 100 µM (RXF 393): -46% | growth at 0.1 µM (SF-268): 102% | growth at 100 µM (NCI-H226 [9]): 71% | GI50 (SK-MEL-5 [10]; read-out: GI50): 4.34 µM | CC50 (SK-MEL-5 [10]; [21]): > 100 µM | TGI (SK-MEL-5 [10]; read-out: TGI): > 100 µM | GI50 (SK-MEL-5 [10]; read-out: pGI50 (converted)): 4.37 µM | CC50 (SK-MEL-5 [10]; [22]): > 100 µM | TGI (SK-MEL-5 [10]; read-out: pTGI (converted)): > 100 µM | growth at 1 µM (HOP-62): 92% | growth at 0.1 µM (ACHN): 107% | growth at 1000 µM (OVCAR-3 [11]): -53% | growth at 1 µM (SF-539): 91% | growth at 10 µM (CAKI-1): 99% | growth at 0.1 µM (NCI-H226 [12]): 101% | growth at 10 µM (SK-MEL-28): 100% | growth at 1000 µM (HCT-15 [13]): 43% | growth at 10 µM (UACC-257 [14]): 99% | growth at 1000 µM (KM12): -28% | growth at 0.1 µM (UACC-257 [15]): 102% | growth at 1000 µM (SK-OV-3): 16% | growth at 10 µM (MOLT-4): 76% | growth at 0.1 µM (HCT-15 [16]): 99% | GI50 (CCRF-CEM [17]; read-out: GI50): 6.69 µM | LC50 (lethal concentration, 50% net cell kill) (CCRF-CEM [17]; read-out: LC50): > 100 µM | TGI (CCRF-CEM [17]; read-out: TGI): 88.6 µM | GI50 (CCRF-CEM [17]; read-out: pGI50 (converted)): 6.76 µM | LC50 (lethal concentration, 50% net cell kill) (CCRF-CEM [17]; read-out: pLC50 (converted)): > 100 µM | TGI (CCRF-CEM [17]; read-out: pTGI (converted)): 89.1 µM | growth at 100 µM (HT-29 [18]): 17% | growth at 1 µM (HT-29 [19]): 105% | growth at 1 µM (MCF7): 91% | growth at 1 µM (TK-10): 103% | growth at 1000 µM (SK-MEL-2 [20]): -30% | growth at 1000 µM (EKVX): 42%
